Like-named read-outs stand apart in the source and are kept apart here.

The values that follow come from patent publication US20250215029A1 (Recludix Pharma, Inc., priority 2022, published 2025).

One assay addresses T1, pY705-STAT3 in PBMC (Homo sapiens, UniProt P40763).
T1 construct: Cryopreserved Peripheral Blood Mononuclear Cells (PBMC) are from AllCells; host or cells: cryopreserved PBMC
Kind of assay: MSD-pSTAT-PBMC Assay (pSTAT3, IL-6 stimulated). In kind it is cell-based. The settings on record: PBMC, compound 3 hrs, then 10 ng/mL IL-6 for 10 min. The gist of the method: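 Human PBMCs were pretreated with compound for 3 h, then stimulated with 10 ng/mL IL-6 for 10 min. Lysate pY705-STAT3 was measured by MSD sandwich immunoassay (anti-STAT3 capture) and corrected for unstimulated background. Signal was normalized to DMSO, and IC50 came from variable-slope regression.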

The next assay concerns the target T2, pY641-STAT6 in PBMC (Homo sapiens, UniProt P42226).
T2 construct: Cryopreserved Peripheral Blood Mononuclear Cells (PBMC) are from AllCells; host or cells: cryopreserved PBMC
T2 sequence (P42226 1-847): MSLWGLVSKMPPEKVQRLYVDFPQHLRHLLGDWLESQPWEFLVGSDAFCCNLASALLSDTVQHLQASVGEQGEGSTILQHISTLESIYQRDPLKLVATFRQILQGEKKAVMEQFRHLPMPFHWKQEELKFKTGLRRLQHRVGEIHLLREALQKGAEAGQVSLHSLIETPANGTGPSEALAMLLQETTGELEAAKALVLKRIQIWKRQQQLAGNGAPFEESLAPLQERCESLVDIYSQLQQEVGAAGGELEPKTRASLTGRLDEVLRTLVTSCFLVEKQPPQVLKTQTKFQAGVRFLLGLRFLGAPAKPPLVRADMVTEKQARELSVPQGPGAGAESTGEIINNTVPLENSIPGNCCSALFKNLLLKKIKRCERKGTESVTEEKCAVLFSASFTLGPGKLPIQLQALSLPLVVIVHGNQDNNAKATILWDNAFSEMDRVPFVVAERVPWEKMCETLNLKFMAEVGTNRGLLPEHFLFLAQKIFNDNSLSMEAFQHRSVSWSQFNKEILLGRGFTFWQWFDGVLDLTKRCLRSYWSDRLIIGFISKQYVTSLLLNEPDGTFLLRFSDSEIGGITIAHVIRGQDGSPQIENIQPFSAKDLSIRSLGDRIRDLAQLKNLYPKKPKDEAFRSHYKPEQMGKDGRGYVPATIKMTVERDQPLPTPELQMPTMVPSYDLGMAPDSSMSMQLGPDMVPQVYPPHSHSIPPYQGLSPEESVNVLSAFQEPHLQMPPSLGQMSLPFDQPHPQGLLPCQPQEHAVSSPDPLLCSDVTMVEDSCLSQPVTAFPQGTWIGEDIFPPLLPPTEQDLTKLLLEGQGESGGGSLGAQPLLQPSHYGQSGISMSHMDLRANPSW
In words: MSD-pSTAT-PBMC Assay (pSTAT6, IL-4 stimulated). The settings on record: compound 3 hrs, then 1 ng/mL IL-4 for 10 min. The assay is classed as cell-based. In short, it runs like this:
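Inhibition of cytokine-induced STAT phosphorylation was measured in recovered human PBMC after 3 hrs compound exposure and a 10 min IL-4 (1 ng/mL) or IL-6 (10 ng/mL) challenge. MSD detection of pY641-STAT6 or pY705-STAT3 yielded IC50 values.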

The mark [1] stands for this setting: PBMC, Table 115, read-out: STAT6.
Setting [2] is: PBMC, Table 1114, read-out: pSTAT6.

T1 sequence (P40763 whole entry): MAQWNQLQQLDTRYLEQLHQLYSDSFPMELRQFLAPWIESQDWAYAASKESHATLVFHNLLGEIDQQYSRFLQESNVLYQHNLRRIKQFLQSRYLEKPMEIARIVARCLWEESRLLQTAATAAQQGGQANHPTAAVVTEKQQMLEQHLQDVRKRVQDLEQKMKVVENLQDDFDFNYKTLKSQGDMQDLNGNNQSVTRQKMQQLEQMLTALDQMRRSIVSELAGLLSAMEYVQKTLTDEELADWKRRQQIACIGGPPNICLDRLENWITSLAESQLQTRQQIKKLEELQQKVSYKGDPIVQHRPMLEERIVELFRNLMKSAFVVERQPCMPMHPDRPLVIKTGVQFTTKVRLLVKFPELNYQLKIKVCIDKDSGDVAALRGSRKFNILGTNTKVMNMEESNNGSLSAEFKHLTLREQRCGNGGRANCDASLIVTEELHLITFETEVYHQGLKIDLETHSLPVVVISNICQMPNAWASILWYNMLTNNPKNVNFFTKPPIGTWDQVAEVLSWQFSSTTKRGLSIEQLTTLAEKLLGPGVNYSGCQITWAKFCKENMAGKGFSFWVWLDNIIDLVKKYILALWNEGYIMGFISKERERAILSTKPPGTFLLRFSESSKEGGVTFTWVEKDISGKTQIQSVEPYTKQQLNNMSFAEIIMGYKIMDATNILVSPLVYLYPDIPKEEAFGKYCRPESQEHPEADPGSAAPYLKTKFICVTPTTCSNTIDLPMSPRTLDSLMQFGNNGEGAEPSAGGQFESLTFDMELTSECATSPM

Take `CCCOC(=O)[C@H](C)NP(=O)(Oc1ccccc1)C(F)c1ccc2sc(C(=O)N[C@H]3CCC[C@H]4CC[C@@H](C(=O)N5CC(c6cnccc6OC)C5)N4C3=O)cc2c1` (stereo partly drawn) [Compound 262, propyl ((fluoro(2-(((3S,6S,9aS)-3-(3-(4-methoxypyridin-3-yl)azetidine-1-carbonyl)-5-oxooctahydro-1H-pyrrolo[1,2-a]azepin-6-yl)carbamoyl)benzo [b]thiophen-5-yl)methyl)(phenoxy)phosphoryl)-L-alaninate]: the IC50 was less than 100 nM on pY705-STAT3 in PBMC (Table 115, read-out: STAT3) and more than 3000 nM against pY641-STAT6 in PBMC (STAT6, PBMC, Table 115).

As for `CCCOC(=O)[C@H](C)NP(=O)(Cc1ccc2sc(C(=O)N[C@H]3CC4(CC[C@H]5CC[C@@H](C(=O)N6CC(c7cccnc7)C6)N5C3=O)CC4)cc2c1)Oc1ccccc1` (stereo partly drawn) [Compound 302, propyl (((2-(((3′S,6′S,10a′S)-5′-oxo-3′-(3-(pyridin-3-yl)azetidine-1-carbonyl)octahydro-5′H-spiro[cyclopropane-1,8′-pyrrolo[1,2-a]azocin]-6′-yl)carbamoyl)benzo [b]thiophen-5-yl)methyl)(phenoxy)phosphoryl)-L-alaninate], the IC50 at pY705-STAT3 in PBMC (Table 115, read-out: STAT3) was less than 100 nM; against pY641-STAT6 in PBMC (STAT6, PBMC, Table 115), 1000 to 3000 nM.

As to `CC(C)CC(=O)SCCOP(=O)(OCOC(=O)O[C@H]1CCOC1)C(F)(F)c1ccc2sc(C(=O)N[C@H]3CCCC[C@H]4CC[C@@H](C(=O)N5C[C@H](c6cc[nH]c(=O)c6)[C@@H](C#N)C5)N4C3=O)cc2c1` (single isomer, unassigned) [Compound 1097], the IC50 was in the range of 1000 to 3000 nM on pY705-STAT3 in PBMC (Table 115, read-out: STAT3) and 100 to 1000 nM on pY641-STAT6 in PBMC (setting [1]).

For the compound `COCCC(=O)SCCOP(=O)(OCCSC(=O)CCOC)C(F)(F)c1ccc2sc(C(=O)N[C@H]3CCCC[C@H]4CC[C@@H](C(=O)N5C[C@@H](C#N)[C@H](c6cc[nH]c(=O)c6)C5)N4C3=O)cc2c1` (single isomer, unassigned) [Compound 1083], the IC50 at pY705-STAT3 in PBMC (Table 115, read-out: STAT3) was in the range of 1000 to 3000 nM; at pY641-STAT6 in PBMC (setting [1]), 100 to 1000 nM.

As to `CC(C)(CO)C(=O)SCCOP(=O)(OCCSC(=O)C(C)(C)CO)C(F)(F)c1ccc2sc(C(=O)N[C@H]3CCCC[C@H]4CC[C@@H](C(=O)N5C[C@@H](C#N)[C@H](c6ccccc6)C5)N4C3=O)cc2c1` (single isomer, unassigned) [Compound 200, S,S′-(((((2-(((3S,6S,10a S)-3-((3S,4R or 3R,4S)-3-cyano-4-phenylpyrrolidine-1-carbonyl)-5-oxodecahydro-pyrrolo [1,2-a]azocin-6-yl)carbamoyl)benzo[b]thiophen-5-yl)difluoromethyl)phosphoryl)bis(oxy))bis(ethane-2,1-diyl)) bis(3-hydroxy-2,2-dimethyl-propanethioate)], the IC50 at pY705-STAT3 in PBMC (Table 1114, read-out: pSTAT3) is 1000 to 3000 nM; at pY641-STAT6 in PBMC (setting [2]), more than 3000 nM.

Take `CC(C)(C)C(=O)OCOP(=O)(OCOC(=O)C(C)(C)C)C(F)(F)c1ccc2sc(C(=O)N[C@@]3(C)CCCC[C@H]4CC[C@@H](C(=O)N5CC(C(=O)N6CCOCC6)C5)N4C3=O)cc2c1` [Compound 186, (((difluoro(2-(((3S,6S, 10aS)-6-methyl-3-(3-(morpholine-4-carbonyl)azetidine-1-carbonyl)-5-oxodeca-hydropyrrolo [1,2-a]azocin-6-yl)carbamoyl)benzo[b]thiophen-5-yl)methyl)phosphoryl)bis (oxy))bis (methylene) bis(2,2-dimethyl-propanoate)]: the IC50 at pY705-STAT3 in PBMC (Table 1114, read-out: pSTAT3) is less than 100 nM; at pY641-STAT6 in PBMC (setting [2]), more than 3000 nM.

On to `CC(C)CC(=O)SCCOP(=O)(OCCSC(=O)CC(C)C)[C@@H](F)c1ccc2sc(C(=O)N[C@H]3CCC[C@H]4CC[C@@H](C(=O)N5CC(c6cccnc6)C5)N4C3=O)cc2c1` [Compound 1089, S,S′-(((((R)-fluoro(2-(((3S,6S,9aS)-5-oxo-3-(3-(pyridin-3-yl)azetidine-1-carbonyl)octahydro-1H-pyrrolo[1,2-a]azepin-6-yl)carbamoyl)benzo [b]thiophen-5-yl)methyl)phosphoryl)bis(oxy))bis(ethane-2,1-diyl)) bis(3-methylbutanethioate], for which the IC50 on pY705-STAT3 in PBMC (Table 115, read-out: STAT3) was less than 100 nM; at pY641-STAT6 in PBMC (setting [1]), 100 to 1000 nM.

As for `COCCC(=O)SCCOP(=O)(OCCSC(=O)CCOC)C(F)(F)c1ccc2sc(C(=O)N[C@H]3CCC[C@H]4CC[C@@H](C(=O)N5CC(c6cccnc6)C5)N4C3=O)cc2c1` [Compound 1106, S,S′-((((difluoro(2-(((3S,6S,9aS)-5-oxo-3-(3-(pyridin-3-yl)azetidine-1-carbonyl)octahydro-1H-pyrrolo[1,2-a]azepin-6-yl)carbamoyl)benzo [b]thiophen-5-yl)methyl)phosphoryl)bis(oxy))bis(ethane-2,1-diyl)) bis(3-methoxy-propanethioate)], the IC50 is less than 100 nM at pY705-STAT3 in PBMC (Table 115, read-out: STAT3) and 100 to 1000 nM at pY641-STAT6 in PBMC (setting [1]).

With `CC(C)(C)C(=O)OCOP(=O)(OCOC(=O)C(C)(C)C)C(F)(F)c1ccc2sc(C(=O)N[C@H]3CCCC[C@H]4CC[C@@H](C(=O)N5CC6(CN(C(=O)Cc7ccccc7)C6)C5)N4C3=O)cc2c1` [Compound 191, (((difluoro(2-(((3S,6S,10aS)-5-oxo-3-(6-(2-phenylacetyl)-2,6-diazaspiro[3. 3]heptane-2-carbonyl)decahydro-pyrrolo [1,2-a]azocin-6-yl)carbamoyl)benzo[b]thiophen-5-yl)methyl)phosphoryl)bis (oxy))bis (methylene) bis(2,2-dimethyl-propanoate)], the IC50 is less than 100 nM at pY705-STAT3 in PBMC (Table 1114, read-out: pSTAT3) and 100 to 1000 nM at pY641-STAT6 in PBMC (setting [2]).

For the compound “S-(2-((((2- (((3S,6S,10aS)-3- ((3S,4R or 3R,4S)-3- cyano-4- phenylpyrrolidine-1- carbonyl)-5- oxodecahydro- pyrrolo[1,2-a] azocin-6- yl)carbamoyl) benzo[b]thiophen- 5-yl)difluoromethyl) (2-(pivaloylthio) ethoxy)phosphoryl) oxy)ethyl) butanethioate [Compound 165]”, the IC50 on pY705-STAT3 in PBMC (Table 1114, read-out: pSTAT3) is 1000 to 3000 nM; on pY641-STAT6 in PBMC (setting [2]), 100 to 1000 nM.

In the case of `CC(C)(C)C(=O)SCCOP(=O)(OCCSC(=O)C(C)(C)C)C(F)(F)c1ccc2sc(C(=O)N[C@H]3CCC[C@H]4CC[C@@H](C(=O)N5CC(c6cnccc6F)C5)N4C3=O)cc2c1` [Compound 324, S,S′-((((difluoro(2-(((3S,6S,9aS)-3-(3-(4-fluoropyridin-3-yl)azetidine-1-carbonyl)-5-oxooctahydro-1H-pyrrolo[1,2-a]azepin-6-yl)carbamoyl)benzo [b]thiophen-5-yl)methyl)phosphoryl)bis(oxy))bis(ethane-2,1-diyl)) bis(2,2-dimethyl-propanethioate)], the IC50 at pY705-STAT3 in PBMC (Table 115, read-out: STAT3) was less than 100 nM; on pY641-STAT6 in PBMC (setting [1]), more than 3000 nM.

“S-(2- (((difluoro(2- (((3S,6S,9aS)-3-(3-((S- methylsulfonimidoyl) methyl)azetidine-1- carbonyl)-5- oxooctahydro-1H- pyrrolo[1,2-a]azepin-6- yl)carbamoyl)benzo[b] thiophen-5-yl)methyl) (((3-methylbutanoyl) thio)methoxy) phosphoryl)oxy)ethyl) 3-methylbutane thioate [Compound 178]”: the IC50 is 100 to 1000 nM on pY705-STAT3 in PBMC (Table 1114, read-out: pSTAT3) and more than 3000 nM on pY641-STAT6 in PBMC (setting [2]).

As to `CCCOC(=O)[C@H](C)NP(=O)(Oc1ccccc1)[C@@H](F)c1ccc2sc(C(=O)N[C@H]3CCCC[C@H]4CC[C@@H](C(=O)N5C[C@@H](c6ccccc6)[C@H](C#N)C56CC6)N4C3=O)cc2c1` (stereo partly drawn) [Compound 380, propyl (((R)-(2-(((3S,6S,10aS)-3-((6R,7S)-7-cyano-6-phenyl-4-azaspiro[2.4]heptane-4-carbonyl)-5-oxodecahydropyrrolo [1,2-a]azocin-6-yl)carbamoyl)benzo [b]thiophen-5-yl)fluoromethyl) (phenoxy)phosphoryl)-L-alaninate], the IC50 was more than 3000 nM on pY705-STAT3 in PBMC (Table 115, read-out: STAT3) and less than 100 nM at pY641-STAT6 in PBMC (STAT6, PBMC, Table 115).

Regarding `CC(C)OC(=O)OCOP(=O)(Cc1ccc2sc(C(=O)N[C@H]3CCCC4CC[C@@H](C(=O)N5CC(c6cccnc6)C5)N4C3=O)cc2c1)OCOC(=O)OC(C)C` (stereo partly drawn) [Compound 158, diisopropyl (((((2-(((3S,6S,9aS)-5-oxo-3-(3-(pyridin-3-yl)azetidine-1-carbonyl)octahydro-1H-pyrrolo[1,2-a]azepin-6-yl)carbamoyl)benzo [b]thiophen-5-yl)methyl)phosphoryl)bis (oxy))bis(methyl-ene))bis(carbonate)], the IC50 on pY705-STAT3 in PBMC (Table 1114, read-out: pSTAT3) was less than 100 nM; at pY641-STAT6 in PBMC (setting [2]), more than 3000 nM.
